Data published in patent US7888363B2, “Viral polymerase inhibitors” (Boehringer Ingelheim International GmbH, priority 2003, dated 2011).

Target: hepatitis C virus RNA dependant polymerase (NS5B) (Hepatitis C virus genotype 1b, UniProt P26663)
Assay: Inhibition of NS5B RNA dependent RNA polymerase activity
Type: biochemical
Settings: Table 1; HCV NS5B polymerase
Description: A suitable assay is described in the examples.
Inhibition of NS5B RNA Dependent RNA Polymerase Activity
The compounds of the invention were tested for inhibitory activity against the hepatitis C virus RNA dependant polymerase (NS5B), according to protocol described in WO 03/010141

hepatitis C virus RNA dependant polymerase (NS5B), sequence (P26663 2420-3010): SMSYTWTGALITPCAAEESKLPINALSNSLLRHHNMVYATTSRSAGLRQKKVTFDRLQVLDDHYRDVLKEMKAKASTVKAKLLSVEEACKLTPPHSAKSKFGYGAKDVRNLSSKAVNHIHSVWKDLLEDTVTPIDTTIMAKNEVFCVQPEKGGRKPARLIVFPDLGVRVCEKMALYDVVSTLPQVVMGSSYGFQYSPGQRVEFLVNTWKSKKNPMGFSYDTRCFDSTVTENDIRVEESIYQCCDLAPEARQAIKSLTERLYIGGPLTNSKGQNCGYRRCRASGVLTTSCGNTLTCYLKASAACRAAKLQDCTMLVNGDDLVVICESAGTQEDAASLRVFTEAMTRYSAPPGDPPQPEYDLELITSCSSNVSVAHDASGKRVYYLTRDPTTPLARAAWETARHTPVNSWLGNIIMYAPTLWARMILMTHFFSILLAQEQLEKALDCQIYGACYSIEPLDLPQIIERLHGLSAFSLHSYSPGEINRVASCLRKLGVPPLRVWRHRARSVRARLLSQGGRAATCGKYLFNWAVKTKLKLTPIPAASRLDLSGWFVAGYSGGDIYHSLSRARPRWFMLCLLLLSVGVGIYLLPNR

Row | Structure (SMILES) | IC50 [nM]
1 | Cn1c(C(=O)O)cc2cc(NC(=O)C(C)(C)NC(=O)Cn3c(-c4ccoc4)c(C4CCCCC4)c4ccc(C(=O)O)cc43)ccc21 [Example 1054] | < 200
2 | NS(=O)(=O)c1ccc(CNC(=O)Cn2c(-c3ccoc3)c(C3CCCCC3)c3ccc(C(=O)O)cc32)cc1 [Example 1069] | 200 to 1000
3 | CCN(CCOC)C(=O)Cn1c(-c2ccoc2)c(C2CCCCC2)c2ccc(C(=O)O)cc21 [Example 1017] | < 200
4 | COc1ccc(CNC(=O)Cn2c(-c3ccoc3)c(C3CCCCC3)c3ccc(C(=O)O)cc32)cc1 [Example 1064] | 1000 to 10000
5 | CC(=O)NNC(=O)Cn1c(-c2ccoc2)c(C2CCCCC2)c2ccc(C(=O)O)cc21 [Example 1110] | < 200
6 | O=C(O)c1ccc2c(C3CCCCC3)c(-c3ccoc3)n(CC(=O)N3CCC(N4CCCCC4)CC3)c2c1 [Example 1010] | < 200
7 | O=C(Cn1c(-c2ccc(Br)cn2)c(C2CCCCC2)c2ccc(C(=O)O)cc21)N[C@@H](Cc1c[nH]c2cc(O)ccc12)C(=O)O [Example 1140] | 200 to 1000
8 | O=C(Cn1c(-c2ccoc2)c(C2CCCCC2)c2ccc(C(=O)O)cc21)NNC(=O)c1ccncc1 [Example 1059] | < 200
9 | CC(C)N(C(=O)Cn1c(-c2ccoc2)c(C2CCCCC2)c2ccc(C(=O)O)cc21)C(C)C [Example 1108] | 200 to 1000
10 | CC(C)(C)C(=O)Cn1c(-c2ccoc2)c(C2CCCCC2)c2ccc(C(=O)O)cc21 [Example 1001] | 200 to 1000
11 | NC(=O)[C@@H]1CCCN1C(=O)Cn1c(-c2ccoc2)c(C2CCCCC2)c2ccc(C(=O)O)cc21 [Example 1057] | < 200
12 | O=C(Cn1c(-c2ccoc2)c(C2CCCCC2)c2ccc(C(=O)O)cc21)NCCCN1CCOCC1 [Example 1009] | 200 to 1000
13 | NC(=O)Cn1c(-c2ccoc2)c(C2CCCCC2)c2ccc(C(=O)O)cc21 [Example 1065] | 200 to 1000
14 | CCN(Cc1ccncc1)C(=O)Cn1c(-c2ccoc2)c(C2CCCCC2)c2ccc(C(=O)O)cc21 [Example 1005] | 200 to 1000
15 | CS(=O)(=O)NC(=O)Cn1c(-c2ccoc2)c(C2CCCCC2)c2ccc(C(=O)O)cc21 [Example 1013] | 200 to 1000
16 | CS(=O)(=O)c1ccc(CNC(=O)Cn2c(-c3ccoc3)c(C3CCCCC3)c3ccc(C(=O)O)cc32)cc1 [Example 1127] | < 200

Results, then the compound that gave them:

Row | IC50 [nM] | Structure (SMILES)
17 | < 200 | CC(C)(NC(=O)Cn1c(-c2ccoc2)c(C2CCCCC2)c2ccc(C(=O)O)cc21)C(=O)Nc1ccc(-c2nc(C(=O)O)cs2)cc1 [Example 1052]
18 | 200 to 1000 | O=C(Cn1c(-c2ccoc2)c(C2CCCCC2)c2ccc(C(=O)O)cc21)Nc1ccccc1 [Example 1060]
19 | 200 to 1000 | O=C(O)c1ccc2c(C3CCCCC3)c(-c3ccccn3)n(CC(=O)N3CCCCC3)c2c1 [Example 1085]
20 | < 200 | O=C(O)/C=C/c1ccc(NC(=O)C2(NC(=O)Cn3c(-c4ccoc4)c(C4CCCCC4)c4ccc(C(=O)O)cc43)CCNCC2)cc1 [Example 1080]
21 | 200 to 1000 | O=C(Cn1c(-c2ccc(Br)cn2)c(C2CCCCC2)c2ccc(C(=O)O)cc21)N[C@@H](Cc1ccc(O)cc1)C(=O)O [Example 1133]
22 | < 200 | O=C(O)c1ccc2c(C3CCCCC3)c(-c3ccoc3)n(CC(=O)N3CCCC(C(=O)O)C3)c2c1 (stereo not shown) [Example 1099]
23 | < 200 | CC(C)(NC(=O)Cn1c(-c2ccoc2)c(C2CCCCC2)c2ccc(C(=O)O)cc21)C(=O)Nc1ccc(/C=C/C(=O)O)cc1 [Example 1051]

Same assay, conditions: Table 2; HCV NS5B polymerase

Row | Structure (SMILES) | IC50 [nM]
24 | O=C(NS(=O)(=O)c1c(Cl)sc(Cl)c1Br)c1ccc2c(C3CCCCC3)c(-c3ccoc3)n(CC(=O)N3CCOCC3)c2c1 [Example 2029] | < 200
25 | COc1cc(C)ccc1S(=O)(=O)NC(=O)c1ccc2c(C3CCCCC3)c(-c3ccoc3)n(CC(=O)N3CCOCC3)c2c1 [Example 2040] | < 200
26 | O=C(NS(=O)(=O)C(F)(F)F)c1ccc2c(C3CCCCC3)c(-c3ccoc3)n(CC(=O)N3CCOCC3)c2c1 [Example 2005] | < 200

Results, then the compound that gave them:

Row | IC50 [nM] | Structure (SMILES)
27 | < 200 | O=C(NS(=O)(=O)c1ccccc1)c1ccc2c(C3CCCCC3)c(-c3ccoc3)n(CC(=O)N3CCOCC3)c2c1 [Example 2001]
28 | < 200 | O=C(NS(=O)(=O)c1cc(F)ccc1F)c1ccc2c(C3CCCCC3)c(-c3ccoc3)n(CC(=O)N3CCOCC3)c2c1 [Example 2014]
29 | < 200 | O=C(NS(=O)(=O)c1ccc2ccccc2c1)c1ccc2c(C3CCCCC3)c(-c3ccoc3)n(CC(=O)N3CCOCC3)c2c1 [Example 2007]

Same assay, conditions: Table 3; HCV NS5B polymerase

Row | IC50 [nM] | Structure (SMILES)
30 | < 200 | O=C(O)/C=C/c1ccc(NC(=O)C2(NC(=O)c3ccc4c(C5CCCCC5)c(-c5ccccn5)n(CC(=O)N5CCCCC5)c4c3)CCC2)cc1 [Example 3009]
31 | < 200 | NC(=O)[C@]1(NC(=O)c2ccc3c(C4CCCCC4)c(-c4ccoc4)n(CC(=O)N4CCOCC4)c3c2)CCNC1 [Example 3004]
32 | < 200 | O=C(O)/C=C/c1ccc(NC(=O)C2(NC(=O)c3ccc4c(C5CCCC5)c(-c5ccccn5)n(CC(=O)N5CCCC5)c4c3)CCC2)cc1 [Example 3010]

Same assay, conditions: Table 4; class ranges

Row | Structure (SMILES) | IC50 [nM]
33 | CC(C)C(CO)NC(=O)c1ccc2c(C3CCCCC3)c(-c3ccoc3)n(CC(=O)N3CCN(C)CC3)c2c1 (stereo not shown) [Example 4012] | 200 to 1000
34 | CN1CCN(C(=O)Cn2c(-c3ccoc3)c(C3CCCCC3)c3ccc(C(=O)NCc4ccc5c(c4)OCO5)cc32)CC1 [Example 4013] | 200 to 1000
35 | CNC(=O)c1ccc2c(C3CCCCC3)c(-c3ccoc3)n(CC(=O)N3CCOCC3)c2c1 [Example 4049] | 200 to 1000
36 | COc1ccc([C@@H](C)NC(=O)c2ccc3c(C4CCCCC4)c(-c4ccoc4)n(CC(=O)N4CCOCC4)c3c2)cc1OC [Example 4063] | 200 to 1000
37 | COc1cc(CNC(=O)c2ccc3c(C4CCCCC4)c(-c4ccoc4)n(CC(=O)N4CCOCC4)c3c2)ccc1O [Example 4064] | 200 to 1000
38 | CCN1CCCC1CNC(=O)c1ccc2c(C3CCCCC3)c(-c3ccoc3)n(CC(=O)N3CCN(C)CC3)c2c1 (stereo not shown) [Example 4010] | 200 to 1000
39 | CNC(=O)C(C)(C)NC(=O)c1ccc2c(C3CCCCC3)c(-c3ccoc3)n(CC(=O)N3CCC(N4CCCC4)CC3)c2c1 [Example 4084] | < 200

The remaining lines, values ahead:

Row | IC50 [nM] | Structure (SMILES)
40 | 200 to 1000 | O=C(NC1(c2csc(Nc3ccccc3)n2)CCC1)c1ccc2c(C3CCCCC3)c(-c3ccoc3)n(CC(=O)N3CCC(N4CCCC4)CC3)c2c1 [Example 4101]
41 | 200 to 1000 | O=C(NC1(C(=O)O)CCCCC1)c1ccc2c(C3CCCCC3)c(-c3ccoc3)n(CC(=O)N3CCOCC3)c2c1 [Example 4078]
42 | < 200 | CN1CCN(C(=O)Cn2c(-c3ccoc3)c(C3CCCCC3)c3ccc(C(=O)NCc4ccc(S(N)(=O)=O)cc4)cc32)CC1 [Example 4032]
43 | 200 to 1000 | CN1CCN(C(=O)Cn2c(-c3ccoc3)c(C3CCCCC3)c3ccc(C(=O)NCc4ccccn4)cc32)CC1 [Example 4015]
44 | 1000 to 10000 | CN1CCN(C(=O)Cn2c(-c3ccoc3)c(C3CCCCC3)c3ccc(C(=O)NCCc4ccccc4)cc32)CC1 [Example 4026]
45 | < 200 | O=C(NC1(C(=O)O)COCOC1)c1ccc2c(C3CCCCC3)c(-c3ccoc3)n(CC(=O)N3CCOCC3)c2c1 [Example 4083]
46 | 200 to 1000 | CN1CCN(C(=O)Cn2c(-c3ccoc3)c(C3CCCCC3)c3ccc(C(=O)NCC(O)c4ccccc4)cc32)CC1 (stereo not shown) [Example 4023]
47 | < 200 | NC(=O)C1(NC(=O)c2ccc3c(C4CCCCC4)c(-c4ccoc4)n(CC(=O)N4CCOCC4)c3c2)COCOC1 [Example 4085]
48 | < 200 | C[C@@H](NC(=O)c1ccc2c(C3CCCCC3)c(-c3ccoc3)n(CC(=O)N3CCC(N4CCCC4)CC3)c2c1)c1ccccc1 [Example 4005]

Same assay, conditions: Table 5; HCV NS5B polymerase

Row | IC50 [nM] | Structure (SMILES)
49 | 200 to 1000 | C=CCn1c(-c2ccoc2)c(C2CCCCC2)c2ccc(C(=O)O)cc21 [Example 5004]
50 | 1000 to 10000 | CC(C(=O)N(C)C)n1c(-c2ccoc2)c(C2CCCCC2)c2ccc(C(=O)O)cc21 (stereo not shown) [Example 5009]

Same assay, conditions: Table 6; HCV NS5B polymerase

Row | IC50 [nM] | Structure (SMILES)
51 | 200 to 1000 | CN(C)C(=O)Cn1c(-c2ccoc2)c(C2CCCCC2)c2cc(C(=O)O)ccc21 [Example 6003]

Same assay, conditions: Table 7; class ranges

Row | IC50 [nM] | Structure (SMILES)
52 | 1000 to 10000 | CC(=O)NC1CCN(C(=O)c2ccc3c(c2)c(C2CCCCC2)c(-c2ccoc2)n3CC(=O)N2CCC(N3CCCC3)CC2)C1 (stereo not shown) [Example 7039]
53 | 1000 to 10000 | O=C(NCc1ccc(F)c(C(F)(F)F)c1)c1ccc2c(c1)c(C1CCCCC1)c(-c1ccoc1)n2CC(=O)N1CCC(N2CCCC2)CC1 [Example 7042]
54 | 1000 to 10000 | O=C(Nc1ccc(N2CCOCC2)cc1)c1ccc2c(c1)c(C1CCCCC1)c(-c1ccoc1)n2CC(=O)N1CCC(N2CCCC2)CC1 [Example 7018]
55 | 1000 to 10000 | O=C(NCCN1CCCC1)c1ccc2c(c1)c(C1CCCCC1)c(-c1ccoc1)n2CC(=O)N1CCC(N2CCCC2)CC1 [Example 7014]
56 | 200 to 1000 | COc1cc2c(C3CCCCC3)c(-c3ccoc3)n(CC(=O)N3CCOCC3)c2cc1C(=O)O [Example 7002]
57 | 1000 to 10000 | O=C(NC1CCCc2ccccc21)c1ccc2c(c1)c(C1CCCCC1)c(-c1ccoc1)n2CC(=O)N1CCC(N2CCCC2)CC1 (stereo not shown) [Example 7012]
58 | 1000 to 10000 | O=C(NC[C@H]1CC[C@H](C(=O)O)CC1)c1ccc2c(c1)c(C1CCCCC1)c(-c1ccoc1)n2CC(=O)N1CCC(N2CCCC2)CC1 [Example 7054]
59 | 1000 to 10000 | Cc1cnc(CNC(=O)c2ccc3c(c2)c(C2CCCCC2)c(-c2ccoc2)n3CC(=O)N2CCC(N3CCCC3)CC2)cn1 [Example 7052]
60 | 1000 to 10000 | CC(CNC(=O)c1ccc2c(c1)c(C1CCCCC1)c(-c1ccoc1)n2CC(=O)N1CCC(N2CCCC2)CC1)c1ccccc1 (stereo not shown) [Example 7030]
61 | 1000 to 10000 | O=C(O)CC(NC(=O)c1ccc2c(c1)c(C1CCCCC1)c(-c1ccoc1)n2CC(=O)N1CCC(N2CCCC2)CC1)C(F)(F)F (stereo not shown) [Example 7051]
62 | 1000 to 10000 | CCN1CCCC1CNC(=O)c1ccc2c(c1)c(C1CCCCC1)c(-c1ccoc1)n2CC(=O)N1CCC(N2CCCC2)CC1 (stereo not shown) [Example 7013]
63 | 1000 to 10000 | Cc1oc(-c2ccc(NC(=O)c3ccc4c(c3)c(C3CCCCC3)c(-c3ccoc3)n4CC(=O)N3CCC(N4CCCC4)CC3)cc2)cc1C(=O)O [Example 7048]
64 | < 200 | Cc1c(C(=O)O)ccc2c(C3CCCCC3)c(-c3ccoc3)n(CC(=O)N3CCOCC3)c12 [Example 7005]
